Measurements as given in patent publication US20250339399A1, “SUPRAMOLECULAR SELF-ASSEMBLY SYSTEM” (Beijing Creatron Institute of Pharmaceutical Research Co., …, priority 2022, published 2025).

Legend:
[1] = Guest molecule concentration after incubation in initial medium without polymer (Comparative Example 1); assay type: physicochemical; conditions: 37° C., pH 6.8 phosphate buffer
Summary of the method: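 Dissolved guest content measured by HPLC of centrifuged supernatants (37° C., 13000 rpm, 5 min) sampled at 0.5 h, 3 h and 6 h. Incubation was polymer-free at 37° C.±0.5° C. in buffers of pH 2.0-7.4; nominal loading was set by maximum clinical dose.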

[2] = Binary supramolecular self-assembly systems of polymer and target: guest concentration over incubation time (Comparative Example 2); assay type: physicochemical; conditions: for Concentration of guest molecule in solution / Times that of the initial medium: 6 h
Description: Experiments were conducted according to the steps in Comparative Example 1, and quantitative analysis was carried out using the analytical method for each target to investigate the regulation ability […] stacking.

[3] = Binary (carrier), ternary and quaternary supramolecular self-assembly systems of polymer, carrier building block and target: guest concentration over incubation time (Examples 1-56); assay type: physicochemical; conditions: 6 h
Summary of the method: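 Targets were incubated at 37 °C in pH 2.0–7.4 buffers with 0.5% polymer alone or with carrier building blocks, after 0.5 h sonication for ternary systems, and shaken at 200 rpm. Samples at 0.5–6 h were centrifuged and diluted ≥10-fold, and dissolved target was quantified by HPLC; surfactant was added if needed.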

[4] = cited from earlier work
[5] = binary system with 0.5% polymer 101, incubation 0.5 h
[6] = binary system with 0.5% polymer 101, incubation 3 h
[7] = binary system with 0.5% polymer 101, incubation 6 h
[8] = binary system with 0.5% polymer 102, incubation 0.5 h
[9] = binary system with 0.5% polymer 102, incubation 3 h
[10] = binary system with 0.5% polymer 102, incubation 6 h
[11] = binary system with 0.5% polymer 103, incubation 0.5 h
[12] = binary system with 0.5% polymer 103, incubation 3 h
[13] = binary system with 0.5% polymer 103, incubation 6 h
[14] = binary system with 0.5% polymer 106, incubation 0.5 h
[15] = binary system with 0.5% polymer 106, incubation 3 h
[16] = binary system with 0.5% polymer 106, incubation 6 h
[17] = binary system with 0.5% polymer 107, incubation 0.5 h
[18] = binary system with 0.5% polymer 107, incubation 3 h
[19] = binary system with 0.5% polymer 107, incubation 6 h
[20] = quaternary: 0.25% 205 (102H+104) + 0.25% 313
[21] = quaternary: 0.25% 205 (102H+104) + 0.25% 318
[22] = quaternary: 204 (103E5+102H) + 301, % not stated
[23] = ternary: 0.25% 102H + 0.25% 313
[24] = ternary: 102H (0.25% where stated) + 301, carrier % not stated

CCCNS(=O)(=O)Nc1ncnc(OCCOc2ncc(Br)cn2)c1-c1ccc(Br)cc1 [Macitentan]
Concentration of guest molecule measured after different incubated time ([1]; 0.5 h): 35.0 µg/mL
Concentration of guest molecule measured after different incubated time ([1]; 3 h): 33.8 µg/mL
Concentration of guest molecule measured after different incubated time ([1]; 6 h): 28.0 µg/mL
Concentration of the target in the solution measured after different incubation time [2, 5]: 56.0 µg/mL
Concentration of the target in the solution measured after different incubation time [2, 6]: 75.2 µg/mL
Concentration of the target in the solution measured after different incubation time [2, 7]: 46.2 µg/mL
Concentration of the target in the solution measured after different incubation time [2, 8]: 56.5 µg/mL
Concentration of the target in the solution measured after different incubation time [2, 9]: 71.5 µg/mL
Concentration of the target in the solution measured after different incubation time [2, 10]: 89.5 µg/mL
Concentration of the target in the solution measured after different incubation time [2, 11]: 34.3 µg/mL
Concentration of the target in the solution measured after different incubation time [2, 12]: 28.5 µg/mL
Concentration of the target in the solution measured after different incubation time [2, 13]: 27.7 µg/mL
Concentration of the target in the solution measured after different incubation time [2, 14]: 41.5 µg/mL
Concentration of the target in the solution measured after different incubation time [2, 15]: 35.6 µg/mL
Concentration of the target in the solution measured after different incubation time [2, 16]: 32.5 µg/mL
Concentration of the target in the solution measured after different incubation time [2, 17]: 46.5 µg/mL
Concentration of the target in the solution measured after different incubation time [2, 18]: 43.5 µg/mL
Concentration of the target in the solution measured after different incubation time [2, 19]: 39.3 µg/mL
Concentration of the target in the solution measured after different incubation time ([2]; binary system with 0.5% polymer 110, incubation 0.5 h): 28.7 µg/mL
Concentration of the target in the solution measured after different incubation time ([2]; binary system with 0.5% polymer 110, incubation 3 h): 34.7 µg/mL
Concentration of the target in the solution measured after different incubation time ([2]; binary system with 0.5% polymer 110, incubation 6 h): 33.5 µg/mL
Concentration of guest molecule in solution ([2]; binary: 0.5% 101): 46.2 µg/mL
Times that of the initial medium ([2]; binary: 0.5% 101): 4.3 times
Concentration of guest molecule in solution ([2]; binary: 0.5% 102H): 89.5 µg/mL
Times that of the initial medium ([2]; binary: 0.5% 102H): 10.4 times
Concentration of guest molecule in solution ([3]; Comparative Example 4, quaternary: 0.25% 201 + 0.25% 305): 59.5 µg/mL
Concentration of guest molecule in solution ([3]; Comparative Example 4, quaternary: 0.25% 201 + 0.25% 309): 29.2 µg/mL
Concentration of guest molecule in solution ([3]; quaternary: 0.25% 201 (102H+101) + 0.25% 307): 362.5 µg/mL
Concentration of guest molecule in solution ([3]; quaternary: 0.25% 201 (102H+101) + 0.25% 308): 516.0 µg/mL
Concentration of guest molecule in solution ([3]; quaternary: 0.25% 201 (102H+101) + 0.25% 313): 474.6 µg/mL
Concentration of guest molecule in solution ([3]; quaternary: 0.25% 201 (102H+101) + 0.25% 320): 562.4 µg/mL
Concentration of guest molecule in solution ([3]; quaternary: 0.25% 201 (102H+101) + 0.25% 321): 596.3 µg/mL
LogP [4]: LogP 3.55

CC(=O)c1c(C)c2cnc(Nc3ccc(N4CCNCC4)cn3)nc2n(C2CCCC2)c1=O [Palbociclib]
Concentration of guest molecule measured after different incubated time ([1]; 0.5 h): 140.4 µg/mL
Concentration of guest molecule measured after different incubated time ([1]; 3 h): 34.8 µg/mL
Concentration of guest molecule measured after different incubated time ([1]; 6 h): 31.6 µg/mL
Concentration of the target in the solution measured after different incubation time [2, 5]: 163.1 µg/mL
Concentration of the target in the solution measured after different incubation time [2, 6]: 89.0 µg/mL
Concentration of the target in the solution measured after different incubation time [2, 7]: 85.5 µg/mL
Concentration of the target in the solution measured after different incubation time [2, 8]: 205.7 µg/mL
Concentration of the target in the solution measured after different incubation time [2, 9]: 167.0 µg/mL
Concentration of the target in the solution measured after different incubation time [2, 10]: 154.0 µg/mL
Concentration of the target in the solution measured after different incubation time [2, 11]: 259.9 µg/mL
Concentration of the target in the solution measured after different incubation time [2, 12]: 126.5 µg/mL
Concentration of the target in the solution measured after different incubation time [2, 13]: 109.6 µg/mL
Concentration of the target in the solution measured after different incubation time ([2]; binary system with 0.5% polymer 104, incubation 0.5 h): 105.4 µg/mL
Concentration of the target in the solution measured after different incubation time ([2]; binary system with 0.5% polymer 104, incubation 3 h): 156.4 µg/mL
Concentration of the target in the solution measured after different incubation time ([2]; binary system with 0.5% polymer 104, incubation 6 h): 144.8 µg/mL
Concentration of the target in the solution measured after different incubation time [2, 14]: 131.3 µg/mL
Concentration of the target in the solution measured after different incubation time [2, 15]: 60.3 µg/mL
Concentration of the target in the solution measured after different incubation time [2, 16]: 58.2 µg/mL
Concentration of the target in the solution measured after different incubation time [2, 17]: 103.5 µg/mL
Concentration of the target in the solution measured after different incubation time [2, 18]: 32.0 µg/mL
Concentration of the target in the solution measured after different incubation time [2, 19]: 27.0 µg/mL
Concentration of guest molecule in solution ([2]; binary: 0.5% 102H): 154.0 µg/mL
Times that of the initial medium ([2]; binary: 0.5% 102H): 4.9 times
Concentration of guest molecule in solution ([2]; binary: 0.5% 103E5): 105.4 µg/mL
Times that of the initial medium ([2]; binary: 0.5% 103E5): 3.3 times
Concentration of guest molecule in solution ([2]; binary: 0.5% 104): 144.8 µg/mL
Times that of the initial medium ([2]; binary: 0.5% 104): 4.6 times
Increase of the concentration of the guest molecule ([3]; 0.25% 102H, 1.0% 313 compared to the 0.25% 313 system): 16.4%
Concentration of guest molecule in solution ([3]; binary: 0.25% 301): 77.0 µg/mL
Concentration of guest molecule in solution ([3]; binary: 0.25% 302): 34.2 µg/mL
Concentration of guest molecule in solution ([3]; binary: 0.25% 310): 279.8 µg/mL
Concentration of guest molecule in solution ([3]; binary: 0.25% 313): 70.0 µg/mL
Concentration of guest molecule in solution ([3]; binary: 0.25% 318): 60.5 µg/mL
Concentration of guest molecule in solution [3, 20]: 250.7 µg/mL
Times that of the initial medium [3, 20]: 7.9 times
Concentration of guest molecule in solution [3, 21]: 257.8 µg/mL
Times that of the initial medium [3, 21]: 8.2 times
Concentration of guest molecule in solution [3, 22]: 250.4 µg/mL
Times that of the initial medium [3, 22]: 7.9 times
Concentration of guest molecule in solution ([3]; ternary: 0.25% 102H + 0.1% 313): 191.5 µg/mL
Times that of the initial medium ([3]; ternary: 0.25% 102H + 0.1% 313): 6.1 times
Concentration of guest molecule in solution ([3]; ternary: 0.25% 102H + 0.25% 302): 195.5 µg/mL
Concentration of guest molecule in solution ([3]; ternary: 0.25% 102H + 0.25% 310): 44.8 µg/mL
Concentration of guest molecule in solution [3, 23]: 361.6 µg/mL
Times that of the initial medium [3, 23]: 11.4 times
Concentration of guest molecule in solution ([3]; ternary: 0.25% 102H + 0.25% 318): 181.8 µg/mL
Concentration of guest molecule in solution ([3]; ternary: 0.25% 102H + 1.0% 313): 420.8 µg/mL
Times that of the initial medium ([3]; ternary: 0.25% 102H + 1.0% 313): 13.3 times
Concentration of guest molecule in solution ([3]; ternary: 0.25% 103E5 + 0.25% 302): 102.3 µg/mL
Concentration of guest molecule in solution ([3]; ternary: 0.25% 104 + 0.25% 302): 138.3 µg/mL
Concentration of guest molecule in solution [3, 24]: 126.9 µg/mL
Times that of the initial medium [3, 24]: 4.0 times
LogD7.4 or Log P [4]: 1.31
